# Measured values taken from patent US20210277264A1, “INK COMPOSITIONS” (HEWLETT-PACKARD DEVELOPMENT COMPANY, L.P., priority 2018, published 2021).
# Assay: Partition coefficient (log P 1-octanol/water) of organic co-solvents
# Details: not given
# From the text: The hydrophilicity of the organic co-solvent can be quantified as a partition coefficient. As used herein, “partition coefficient” refers to a concentration ratio of a compound in an equilibrium mixture of two immiscible phases, and can be a measure of the difference in solubility of the compound in the two immiscible phases. Formula I provides an equation of quantifying the hydrophilicity of the organic co-solvents of the present disclosure, as follows: […]
row,Partition Coefficient (log P1-octanol/water),Compound
1,2.34,"CCCCCCCCO [Ink 1-octanol, 1-octanol]"
2,−0.40,"CC1(C)NC(=O)NC1=O [5,5-dimethyl hydantoin]"
3,−1.00,OCCOCCOCCO [triethylene glycol]
4,−1.39,"CC1(C)C(=O)N(CCO)C(=O)N1CCO [di-(2-hydroxyethy)-5,5-dimethylhydantoin]"
5,−0.40,O=C1CCCN1CCO [N-(2-hydroxyethyl)-2-pyrrolidinone]

row,Compound,Partition Coefficient (log P1-octanol/water)
1,O [water],−0.825

# Same assay, conditions: equilibrium mixture of 1-octanol and water
row,Compound,Partition Coefficient (log P1-octanol/water)
1,O=C1CCCN1 [2-pyrrolidone],−0.10
2,CCC(CO)(CO)CO [ethylhydroxy propanediol],−0.50
